Data reported in article PMC5572671 (Biomaterials, 2017).
Like-named read-outs stand apart in the source and are kept apart here.

Assays:
[1] = cited from earlier work
Caco-2 monolayers [2] = assay: Caco-2 monolayer drug transport assay; conditions: Fig. 6; 2 h; LC-MS
Caco-2 monolayers [3] = conditions: standard Caco-2 assay on collagen type-I; cited from earlier work
Caco-2 monolayers [4] = system: Caco-2 monolayers

Row | Papp for cells on eECM with decreased CBD and decreased stiffness compared to cells grown on collagen (Caco-2 monolayers [2]) | Papp for cells on eECM with decreased CBD and decreased stiffness compared to cells grown on collagen (Caco-2 monolayers [4]) | SMILES | in vivo absorption [1] [%] | absorption predicted by the Caco-2 assay (Caco-2 monolayers [3])
1 |  |  | C[C@@H]1C[C@H]2[C@@H]3CCC4=CC(=O)C=C[C@]4(C)[C@@]3(F)[C@@H](O)C[C@]2(C)[C@@]1(O)C(=O)CO [dexamethasone] | > 85 | 
2 |  |  | NC(N)=Nc1nc(CSCCC(N)=NS(N)(=O)=O)cs1 [famotidine] | 35 | 
3 | significantly higher |  | CC(C)(C)NCC(O)COc1cccc2c1CC(O)C(O)C2 (stereo not shown) [nadolol] | 45 | 
4 |  | significantly higher | CNC(=C[N+](=O)[O-])NCCSCc1ccc(CN(C)C)o1 [ranitidine] | 51 | little to no absorption
